This is an account of results in US11733142B2, “Antimicrobic susceptibility testing using digital microscopy” (Beckman Coulter, Inc., priority 2017, dated 2023).

One assay concerns E. coli. Description: Antimicrobic susceptibility testing (AST) by digital microscopy: count sum, area sum, area/count ratio. It is filed as cell-based. As for the experimental part:
FIGS. 7-23 illustrate various features and steps of optimized AST method 101 (FIG. 19). In some versions, system 1 as discussed above may be used to facilitate some or all of the features provided in optimized AST method 101. Optimized AST method 101 includes performing an image analysis cycle 102 repetitively until a MIC is determined. FIG. 8 provides several exemplary digital microscopy parameters for use in optimized AST method 101. Test well 20 is embodied by a “384” style test well, having a clear viewing bottom. The volume of inoculum in test well 20 may be set to 20 microliters to reduce the amount of materials such as bulk diluents required by AST method 101 and/or minimize light artifacts and provide sampling of a consistent number of microbes from the 1:250 dilution of the 0.5 MacFarland inoculum. […] the volume of inoculum in test well 20 generally increases the light artifacts. In some instances, capturing a single vertical plane 103 at 20× objective whereby AST camera 35 is set at 0.33 microns/pixel may be sufficient for sampling the inoculum and ensuring that each individual microbe is recognizable. However, these parameters are configurable and may change as desired by the user or the underlying needs of the system. Capturing three focal sites spaced about 5 microns apart within single vertical plane 103 may also provide a sufficient number of microbes in the sample to count for use in optimized AST method 101. These three focal sites are labeled site 105, site 107, and site 109 in FIG. 8. In an exemplary version of optimized AST method 101, each focal site is approximately 700×700 microns within single vertical plane 103, rather than capturing three sites in three different vertical planes. AST camera 35, optics system 9, and computer 49 are configured to capture an image of each focal site in consecutive time periods, manipulate each of these images, and thereafter use the data derived from these manipulated images to make a MIC determination. Image analysis cycle 102 is generally depicted in FIG. 9 and comprises an image capture step 111, an image enhancement step 113, an image segmentation step 115, and an object counting step 117. Optimized AST method 101 includes performing image analysis cycle 102 repetitively until a MIC is determined. Image analysis cycle 102 utilizes one or more instances of computer 49 and the various elements thereof to perform image capture step 111, image enhancement step 113, image segmentation step 115, and object counting step 117, as well as any sub steps provided therein. Once image segmentation step 115 generates segmented image 143, image segmentation step 115 proceeds to object counting step 117. In object counting step 117, the background and foreground pixels are considered to derive information regarding the number of microbes in the sample, the area occupied by the microbes in the sample, and the ratio between the number of microbes and the area occupied by the microbes. In some versions of object counting step 117, the actual microbe count is compared with an average microbe count to determine if an error occurred within the image capture process. The comparison may incorporate a standard deviation with the average microbe count to generalize the microbe comparison. Object counting step 117 may be configured to derive information regarding the ratio between the total area occupied by all of the microbes in the image and the total count of microbes. This information may be useful by determining whether the microbes are undergoing elongation over time. Elongation is a precursor to death and indicates the concentration of the antimicrobic dilution is negatively affecting the microbes. More specifically, elongation may occur when microbes such as bacteria encounter an effective amount of antibiotic drugs. Once object counting step 117 derives the desired information from segmented image 143, image analysis cycle 102 terminates. […]

Assay [1] has as its system gram negative bacteria carrying the Klebsiella pneumonia carbapenemase (KPC) resistance mechanism. Description: Growth pattern combined with fluorogenic pH test (MEU) to detect resistance and predict MIC. It is filed as cell-based. The conditions noted are these: predicted if pH changes in Meropenem well within 1-2 hours and the growth pattern is identified. The text has this:
The growth pattern information derived from optics system 9 may also be combined with a fluorogenic test measuring a change in pH to detect some mechanisms of resistance in the microbes being tested. As an example, one of the fluorogenic test substrates could be an antimicrobial agent. Degradation of the antimicrobial agent leads to a change in the pH of the medium within two hours after inoculation, and the pH change can be detected with an indicator that changes fluoresces with changes in pH. Combining the information on the growth patterns (cell count, area, and area/count), as described above, along with an indication that the antimicrobial agent has degraded provides a way to quickly ascertain if the microbe is resistant and helps to determine the MIC of the organism.
For example, the antibiotic Meropenem is enzymatically degraded by microbes such as gram negative bacteria carrying the Klebsiella pneumonia carbapenemase (KPC) resistance mechanism. If Meropenem is degraded, the medium drops in pH. The fluorogenic pH indicator, MEU (methyllumbeliferone) will change (decrease) in fluorescence with that change. This change occurs within 1 to 2 hours. […]

As for `CC1(C)S[C@@H]2[C@H](NC(=O)[C@H](N)c3ccccc3)C(=O)N2[C@H]1C(=O)O` [ampicillin], the “growth morphology after exposure” value with E. coli (E. coli exposed to a dilution of ampicillin (FIG. 17) vs free from ampicillin (FIG. 18)) is on record as “abnormal growth in the form of elongation”.

In the case of `CO/N=C(\C(=O)N[C@@H]1C(=O)N2C(C(=O)[O-])=C(C[N+]3(C)CCCC3)CS[C@H]12)c1csc(N)n1` [Cefepime], the MIC with E. coli (E. coli sample, bacteria count data at around the 200-minute mark (FIG. 21)) amounted to 0.06 µg/mL; with E. coli (E. coli sample, ratio data at around the 120-minute mark (FIG. 22)) it was 0.06 µg/mL.

`CO/N=C(\C(=O)N[C@@H]1C(=O)N2C(C(=O)O)=C(CSc3nc(=O)c(=O)[nH]n3C)CS[C@H]12)c1csc(N)n1` [Cax]: the “effect on bacteria count” value in the assay on E. coli (E. coli sample, Cax 0.12 dilution compared with Growth sample (FIG. 20A)) is “no effect”. In addition, the MIC in the assay on E. coli (E. coli sample, from count sum data (FIG. 20A)) was 0.25 µg/mL; with E. coli (E. coli, from area/count ratio data, elongation spike (FIG. 20C)), 0.25 µg/mL. The “area/count ratio (elongation spike)” value in the assay on E. coli (E. coli, Cax 0.25 and higher dilutions (FIG. 20C), No Growth line approximately 4.0) is listed as “above 8.0”. In addition, in the assay on E. coli (E. coli, from area sum data (FIG. 20B)), the “minimum amount of antibiotic to have the desired effect on the area occupied by the bacteria” value amounted to 0.25.

As to `C[C@@H](O)[C@H]1C(=O)N2C(C(=O)O)=C(S[C@@H]3CN[C@H](C(=O)N(C)C)C3)[C@H](C)[C@H]12` [Meropenem], in assay [1], the MIC entry is on record as “greater than 1 mcg/ml”.

The MIC is the lowest concentration that inhibits growth of the organism.
